Experimental data published in ChEMBL document CHEMBL1201862, “PubChem BioAssay data set” (2004).
Calls of active or inactive are those of the source.

Experiments:
HEK293 [1] = assay: NOD1 signaling inhibitors, primary screen, cell-based, luminescence, uHTS (AID 1578); assay type: functional; settings: Homo sapiens
HEK293 [2] = assay: cells; assay type: functional, cell-based; settings: Homo sapiens
HEK293 [3] = assay: cells; assay type: functional, cell-based; settings: Homo sapiens; remark: listed apart in the source
HEK293 [4] = assay: NOD2 signaling inhibitors in MDP-stimulated cells, cell-based, uHTS, luminescence (AID 2001); assay type: functional; settings: Homo sapiens
Tumor necrosis factor = Tumor necrosis factor (Homo sapiens, UniProt P01375); assay: TNFa-triggered NF-kB activation inhibitors, SAR follow-up, cell-based, revised (AID 2337); assay type: functional
[5] = target: T1, Nucleotide-binding oligomerization domain-containing protein 1 (Homo sapiens, UniProt Q9Y239); assay: NOD1 signaling inhibitors, SAR follow-up, revised (AID 2333); assay type: functional
T1 sequence (Q9Y239 whole entry): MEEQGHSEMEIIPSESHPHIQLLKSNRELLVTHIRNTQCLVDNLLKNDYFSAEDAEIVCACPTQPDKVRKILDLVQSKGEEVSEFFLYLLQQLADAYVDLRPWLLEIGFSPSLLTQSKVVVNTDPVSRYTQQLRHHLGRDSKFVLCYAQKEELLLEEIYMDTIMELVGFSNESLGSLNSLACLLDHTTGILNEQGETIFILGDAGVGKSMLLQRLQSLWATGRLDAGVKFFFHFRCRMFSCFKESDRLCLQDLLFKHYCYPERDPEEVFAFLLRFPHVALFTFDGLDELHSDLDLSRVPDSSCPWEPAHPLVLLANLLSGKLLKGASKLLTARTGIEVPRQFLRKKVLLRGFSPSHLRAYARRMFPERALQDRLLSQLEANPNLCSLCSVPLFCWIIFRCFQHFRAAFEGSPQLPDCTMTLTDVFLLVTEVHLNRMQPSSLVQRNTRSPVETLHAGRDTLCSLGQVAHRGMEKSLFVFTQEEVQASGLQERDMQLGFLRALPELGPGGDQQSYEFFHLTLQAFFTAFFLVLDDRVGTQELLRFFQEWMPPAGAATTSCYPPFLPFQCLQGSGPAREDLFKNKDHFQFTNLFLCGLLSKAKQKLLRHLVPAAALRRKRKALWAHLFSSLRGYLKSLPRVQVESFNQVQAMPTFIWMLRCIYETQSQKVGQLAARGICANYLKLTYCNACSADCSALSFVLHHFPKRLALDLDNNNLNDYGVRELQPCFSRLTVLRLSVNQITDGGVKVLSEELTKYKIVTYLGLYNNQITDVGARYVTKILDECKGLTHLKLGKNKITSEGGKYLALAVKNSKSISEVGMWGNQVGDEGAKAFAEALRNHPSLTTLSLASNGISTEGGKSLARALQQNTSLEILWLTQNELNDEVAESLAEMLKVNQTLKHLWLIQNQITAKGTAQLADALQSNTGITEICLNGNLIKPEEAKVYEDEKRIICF

INS1 = assay: beta cell apoptosis inhibitors, cytokine rescue, dose response, luminescence, retest (AID 449756); assay type: functional, cell-based; settings: Rattus norvegicus;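 further: cell death triggered by IL-1 beta plus TNF-alpha plus IFN-gamma mixture; protective hits raise ATP signal compared with cytokine alone wells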
Galanin receptor type 3 = Galanin receptor type 3 (Homo sapiens, UniProt O60755); assay: Fluorescence-based cell-based primary high throughput dose response assay to identify antagonists of the Galanin Receptor 3 (GalR3).; assay type: functional
cells = assay type: functional, cell-based; settings: HEK-CNG
[6] = target: T2, COUP transcription factor 2 (Homo sapiens, UniProt P24468); assay: Luminescence-based cell-based high throughput dose response assay to identify inhibitors of COUP-TFII (NR2F2).; assay type: functional;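 further: HEK293 cells transiently cotransfected with COUP-TFII expression vector and reporter; luciferase reporter luminescence driven by COUP-TFII from the pX2-168 reporter plasmid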
T2 sequence (P24468 whole entry): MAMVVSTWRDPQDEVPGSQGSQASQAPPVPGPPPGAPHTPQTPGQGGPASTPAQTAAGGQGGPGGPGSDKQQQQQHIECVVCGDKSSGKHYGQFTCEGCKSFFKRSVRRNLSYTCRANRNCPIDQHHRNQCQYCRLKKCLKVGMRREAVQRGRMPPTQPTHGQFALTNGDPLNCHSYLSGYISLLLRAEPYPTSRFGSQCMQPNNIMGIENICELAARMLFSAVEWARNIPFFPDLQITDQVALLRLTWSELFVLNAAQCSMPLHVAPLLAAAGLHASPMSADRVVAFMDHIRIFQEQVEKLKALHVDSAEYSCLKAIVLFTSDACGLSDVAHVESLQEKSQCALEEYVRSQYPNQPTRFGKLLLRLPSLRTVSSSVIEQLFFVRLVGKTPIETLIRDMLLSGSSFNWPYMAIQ

HEK293 [7] = assay: cells; settings: Homo sapiens
[8] = A549 cell cytotoxicity, dose response, cytotoxicity control, plate reader, cherry-pick, antagonist series (AID 743412); assay type: functional, cell-based
[9] = HepG2 cell cytotoxicity, dose response, cytotoxicity control, plate reader, cherry-pick, antagonist series (AID 743416); assay type: functional, cell-based
[10] = LGR2 antagonists, dose response, cell-based, HEK293, CRE-luciferase reporter, cherry pick, set 2 (AID 743343); assay type: functional;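 further: transfected cells were stimulated with diluted bursicon conditioned medium after compound addition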
[11] = MC4R antagonists, dose response, counter-screen for LGR2 antagonist project, cell-based, plate reader, cherry pick (AID 743444); assay type: functional;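 further: transfected HEK 293 cells stimulated with alpha-MSH peptide; potency of inhibitors of the alpha-MSH evoked signal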
[12] = HEK293 cell cytotoxicity, dose response, cytotoxicity control, plate reader, cherry-picked samples (AID 743446); assay type: functional, cell-based
[13] = target: Luciferin 4-monooxygenase (Photinus pyralis, UniProt P08659); assay: firefly luciferase enzyme inhibitors, dose response, biochemical, luminescence (AID 1891)
[14] = Luminescence Cell-Based Dose Confirmation HTS to Identify Inhibitors of Platelet Dense Granule Release. [Related pubchem assays: 1663 (Primary HTS), 1678 (Summary of Project)]; assay type: functional
[15] = target: T3, Replicative DNA helicase DnaB (Mycobacterium tuberculosis, UniProt P9WMR3); assay: DnaB intein splicing inhibitors, dose response, biochemical, cell-free fluorescence (AID 449749); assay type: functional
T3 sequence (P9WMR3 whole entry): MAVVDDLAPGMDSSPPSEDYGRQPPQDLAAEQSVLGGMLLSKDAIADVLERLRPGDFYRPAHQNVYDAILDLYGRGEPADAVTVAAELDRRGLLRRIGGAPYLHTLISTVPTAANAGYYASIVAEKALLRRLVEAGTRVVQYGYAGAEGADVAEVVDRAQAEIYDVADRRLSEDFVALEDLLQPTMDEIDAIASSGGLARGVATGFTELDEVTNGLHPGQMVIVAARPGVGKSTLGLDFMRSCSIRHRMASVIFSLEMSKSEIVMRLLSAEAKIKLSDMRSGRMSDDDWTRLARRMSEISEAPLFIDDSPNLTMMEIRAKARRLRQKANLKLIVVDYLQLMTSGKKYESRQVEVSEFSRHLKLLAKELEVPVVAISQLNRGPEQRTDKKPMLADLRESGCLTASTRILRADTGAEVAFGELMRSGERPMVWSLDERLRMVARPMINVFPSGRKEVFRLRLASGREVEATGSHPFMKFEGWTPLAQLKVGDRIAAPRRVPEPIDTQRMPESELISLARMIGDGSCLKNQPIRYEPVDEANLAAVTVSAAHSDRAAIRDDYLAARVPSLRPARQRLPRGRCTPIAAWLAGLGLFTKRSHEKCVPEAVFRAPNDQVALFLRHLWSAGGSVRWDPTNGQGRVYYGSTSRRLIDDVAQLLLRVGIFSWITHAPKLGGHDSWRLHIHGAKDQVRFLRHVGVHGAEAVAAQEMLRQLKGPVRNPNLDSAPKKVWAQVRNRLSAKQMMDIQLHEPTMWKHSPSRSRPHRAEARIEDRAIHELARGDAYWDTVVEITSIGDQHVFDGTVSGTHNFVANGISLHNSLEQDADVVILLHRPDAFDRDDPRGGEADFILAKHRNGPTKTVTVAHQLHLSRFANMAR

Protein RecA = target: T4, Protein RecA (Mycobacterium tuberculosis, UniProt P9WHJ3); assay: Fluorescence Cell-Free Homogeneous Dose Retest to Identify Inhibitors of RecA-Intein Splicing Activity. [Related pubchem assays (depositor defined):AID2097, AID2223, AID489010, AID492950]; assay type: functional
T4 sequence (P9WHJ3 whole entry): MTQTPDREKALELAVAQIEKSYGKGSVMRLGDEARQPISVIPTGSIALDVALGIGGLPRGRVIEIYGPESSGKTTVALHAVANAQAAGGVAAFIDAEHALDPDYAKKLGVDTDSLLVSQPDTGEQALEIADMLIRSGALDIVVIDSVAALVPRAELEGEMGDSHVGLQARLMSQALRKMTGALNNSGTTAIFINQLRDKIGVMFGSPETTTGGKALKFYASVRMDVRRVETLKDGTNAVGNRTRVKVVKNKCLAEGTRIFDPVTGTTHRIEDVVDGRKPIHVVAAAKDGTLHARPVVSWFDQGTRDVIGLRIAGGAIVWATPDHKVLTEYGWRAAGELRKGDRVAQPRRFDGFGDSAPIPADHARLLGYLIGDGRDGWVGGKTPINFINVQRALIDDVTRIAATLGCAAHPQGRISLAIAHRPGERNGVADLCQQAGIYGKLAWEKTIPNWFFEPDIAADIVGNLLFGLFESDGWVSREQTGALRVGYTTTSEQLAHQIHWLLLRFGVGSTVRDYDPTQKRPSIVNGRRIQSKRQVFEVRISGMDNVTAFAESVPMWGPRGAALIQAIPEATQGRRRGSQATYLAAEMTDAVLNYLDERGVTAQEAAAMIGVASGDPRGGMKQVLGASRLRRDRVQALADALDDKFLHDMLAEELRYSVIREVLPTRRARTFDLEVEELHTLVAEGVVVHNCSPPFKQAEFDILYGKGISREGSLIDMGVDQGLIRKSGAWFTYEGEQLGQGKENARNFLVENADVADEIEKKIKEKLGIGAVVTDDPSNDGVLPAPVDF

[16] = target: Tyrosyl-DNA phosphodiesterase 2 (Homo sapiens, UniProt O95551); assay: human TDP2 enzyme inhibitors, dose response, biochemical, epi absorbance, IC50 (AID 743297)
Sequence of Tyrosyl-DNA phosphodiesterase 2 (O95551 whole entry): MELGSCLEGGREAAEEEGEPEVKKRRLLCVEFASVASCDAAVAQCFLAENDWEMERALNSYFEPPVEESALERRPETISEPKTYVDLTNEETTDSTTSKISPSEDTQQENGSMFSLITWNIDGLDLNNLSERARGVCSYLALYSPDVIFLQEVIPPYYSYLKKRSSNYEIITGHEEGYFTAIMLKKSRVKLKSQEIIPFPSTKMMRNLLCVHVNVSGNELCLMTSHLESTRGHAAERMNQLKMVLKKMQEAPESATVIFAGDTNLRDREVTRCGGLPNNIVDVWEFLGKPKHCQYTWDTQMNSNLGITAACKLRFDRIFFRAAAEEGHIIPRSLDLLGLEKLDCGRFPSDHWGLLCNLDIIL

Sequence of Luciferin 4-monooxygenase (P08659 whole entry): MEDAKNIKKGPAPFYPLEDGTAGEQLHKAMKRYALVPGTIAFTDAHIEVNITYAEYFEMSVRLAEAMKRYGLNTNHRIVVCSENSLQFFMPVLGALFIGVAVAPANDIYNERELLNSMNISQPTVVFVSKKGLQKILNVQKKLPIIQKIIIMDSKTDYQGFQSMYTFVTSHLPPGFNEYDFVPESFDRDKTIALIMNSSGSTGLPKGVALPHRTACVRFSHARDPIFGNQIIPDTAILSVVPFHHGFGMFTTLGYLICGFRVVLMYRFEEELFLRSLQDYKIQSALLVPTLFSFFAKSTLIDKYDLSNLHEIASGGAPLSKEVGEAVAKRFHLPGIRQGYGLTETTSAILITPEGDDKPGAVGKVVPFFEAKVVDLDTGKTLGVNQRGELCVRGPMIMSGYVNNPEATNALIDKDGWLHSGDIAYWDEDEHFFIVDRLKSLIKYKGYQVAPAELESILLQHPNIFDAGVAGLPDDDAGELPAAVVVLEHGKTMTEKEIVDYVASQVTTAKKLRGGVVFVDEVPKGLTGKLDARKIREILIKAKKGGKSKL
Sequence of Galanin receptor type 3 (O60755 whole entry): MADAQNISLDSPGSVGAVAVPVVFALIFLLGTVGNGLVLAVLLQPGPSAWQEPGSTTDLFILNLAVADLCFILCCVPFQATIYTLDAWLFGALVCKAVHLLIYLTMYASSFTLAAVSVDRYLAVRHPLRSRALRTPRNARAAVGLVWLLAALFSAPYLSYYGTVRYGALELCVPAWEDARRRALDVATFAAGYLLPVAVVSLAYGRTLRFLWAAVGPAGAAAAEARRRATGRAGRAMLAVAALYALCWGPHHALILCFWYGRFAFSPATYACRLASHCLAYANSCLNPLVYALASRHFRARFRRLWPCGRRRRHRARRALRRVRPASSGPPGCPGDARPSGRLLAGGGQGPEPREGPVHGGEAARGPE
Sequence of Tumor necrosis factor (P01375 whole entry, the tested form may be a part): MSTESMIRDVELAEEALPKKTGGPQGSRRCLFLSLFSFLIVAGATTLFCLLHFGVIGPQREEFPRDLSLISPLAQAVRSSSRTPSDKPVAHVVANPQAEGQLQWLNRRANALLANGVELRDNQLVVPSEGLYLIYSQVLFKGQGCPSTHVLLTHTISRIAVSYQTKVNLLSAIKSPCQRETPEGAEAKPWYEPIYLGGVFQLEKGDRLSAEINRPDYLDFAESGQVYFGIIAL

C=CCC1(CC=C)CCCN1C(=O)c1cc(COc2ccc(C)nc2)on1
active: EC50 (HEK293 [1]) 2.7 µM | IC50 (HEK293 [2]) 4.44 µM | IC50 (HEK293 [3]) 14.1 µM | IC50 (HEK293 [4]) 7.3 µM | IC50 (Tumor necrosis factor) 4.24 µM | IC50 [5] 2.67 µM | AC50 (INS1) 2.13 µM | IC50 (Galanin receptor type 3) 1.25 µM | IC50 (HEK293 [7]) 19 µM
inactive: EC50 (cells) > 29.9 µM | IC50 [6] 11.8 µM

COc1ccc(S(=O)(=O)Nc2ccc3c(c2)CC(=O)N([C@@H](C)CO)C[C@H](C)[C@@H](CN(C)Cc2ccc(Cl)c(Cl)c2)O3)cc1
active: AC50 [8] 12.4 µM | AC50 [9] 14.3 µM | AC50 [10] 20.5 µM | AC50 [11] 15.9 µM | AC50 [12] 15.7 µM

Cc1cccc(NC(=O)c2ccc3c(c2)OCCO3)c1
inactive: AC50 [8] > 52 µM | AC50 [9] > 52 µM | AC50 [12] > 52 µM
active: EC50 [13] 6.2 µM | EC50 [14] 6.74 µM | AC50 [10] 7.92 µM | AC50 [11] 9.29 µM

COc1ccc(/C=C2/C(=O)N(c3ccccc3)N=C2C)cc1Br
active: AC50 [15] 2.77 µM | EC50 (Protein RecA) 2.3 µM
inactive: IC50 [16] 102 µM
